Results reported in US11154063B2, “Method for producing a bacteriostatic and fungistatic additive in masterbatch for application in plastics” (SERVICIOS ADMINISTRATIVOS PEÑOLES, S.A. DE C.V., priority 2013, dated 2021).

System: S. aureus
Test: Inhibition in RP 340 polypropylene copolymer after aging in UV chamber
Format: cell-based
Conditions: after 120 h of aging in UV chamber

Oc1cc(Cl)ccc1Oc1ccc(Cl)cc1Cl [triclosan]
After 120 h of aging Inhibition %.: starts decreasing its antimicrobial effectiveness
